Test results published in patent US12077503B2, “Substituted cyclic amides and their use as herbicides” (FMC CORPORATION, priority 2015, dated 2024).

What was measured:
Type in all cases: in vivo
[1] = system: barnyardgrass (Echinochloa crus-galli); test: Test A postemergence; details: Echinochloa crus-galli, post-emergence, 240 h, Postemergence
Outline: (§1)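 Compounds were formulated in a non-phytotoxic solvent mixture with surfactant and applied as a preemergence directed soil spray after seeding, or sprayed postemergence over plants 2 to 10 cm tall at the one- to two-leaf stage. Evaluation after about 10 d compared treated with untreated controls, using a scale from 0 (no effect) to 100 (complete control).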

[2] = system: blackgrass (Alopecurus myosuroides); test: Test A postemergence; details: Alopecurus myosuroides, post-emergence, 240 h, Postemergence, read-out: Blackgrass plant response rating (0 to 100 scale)
Outline: as §1

[3] = system: ragweed (common ragweed, Ambrosia elatior); test: Test A postemergence; details: Ambrosia artemisiifolia, post-emergence, 240 h, Postemergence, read-out: Ragweed plant response rating (0 to 100 scale)
Outline: as §1

[4] = system: wheat (Triticum aestivum); test: Test A postemergence; details: Triticum aestivum, post-emergence, 240 h, Postemergence, read-out: Wheat plant response rating (0 to 100 scale)
Outline: as §1

[5] = system: giant foxtail (Setaria faberii); test: Test A postemergence; details: Setaria faberi, post-emergence, 240 h, Postemergence, read-out: Foxtail, Giant plant response rating (0 to 100 scale)
Outline: as §1

[6] = system: pigweed (Amaranthus retroflexus); test: Test A postemergence; details: Amaranthus retroflexus, post-emergence, 240 h, Postemergence, read-out: Pigweed plant response rating (0 to 100 scale)
Outline: as §1

Kochia (Kochia scoparia) [7] = test: Test A postemergence; details: Bassia scoparia, post-emergence, 240 h, Postemergence, read-out: Kochia plant response rating (0 to 100 scale)
Outline: as §1

[8] = system: Galium (catchweed bedstraw, Galium aparine); test: Test A postemergence; details: Galium, post-emergence, 240 h, Postemergence, read-out: Galium plant response rating (0 to 100 scale)
Outline: as §1

corn (Zea mays) = test: Test A postemergence; details: Zea mays, post-emergence, 240 h, Postemergence, read-out: Corn plant response rating (0 to 100 scale)
Outline: as §1

[9] = system: ryegrass, Italian (Italian ryegrass, Lolium multiflorum); test: Test A postemergence; details: Lolium multiflorum, post-emergence, 240 h, Postemergence, read-out: Ryegrass, Italian plant response rating (0 to 100 scale)
Outline: as §1

[10] = system: barnyardgrass (Echinochloa crus-galli); test: Test B flooded paddy test; details: Echinochloa crus-galli, 250 g ai/ha, Flood; 0 to 100 scale where 0 is no effect and 100 is complete control; read-out: Barnyardgrass plant response rating
Outline: (§2)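 Greenhouse paddy pots with 2-leaf stage plants received compound by direct addition to floodwater 3 cm deep, kept at that level. Scored visually at 13–15 d versus controls (0 no effect; 100 complete control).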

[11] = system: ducksalad (Heteranthera limosa); test: Test B flooded paddy test; details: Heteranthera limosa, 250 g ai/ha, Flood; 0 to 100 scale where 0 is no effect and 100 is complete control; read-out: Ducksalad plant response rating
Outline: as §2

[12] = system: sedge, umbrella (small-flower umbrella sedge, Cyperus difformis); test: Test B flooded paddy test; details: Cyperus difformis, 250 g ai/ha, Flood; 0 to 100 scale where 0 is no effect and 100 is complete control; read-out: Sedge, Umbrella plant response rating
Outline: as §2

rice (Oryra sativa) = test: Test B flooded paddy test; details: Oryza sativa, 250 g ai/ha, Flood; 0 to 100 scale where 0 is no effect and 100 is complete control; read-out: Rice plant response rating
Outline: as §2

[13] = system: barnyardgrass (Echinochloa crus-galli); test: Test A preemergence; details: Echinochloa crus-galli, pre-emergence, 240 h, 0 to 100 scale where 0 is no effect and 100 is complete control, read-out: Barnyardgrass plant response rating
Outline: as §1

[14] = system: ragweed (common ragweed, Ambrosia elatior); test: Test A preemergence; details: Ambrosia artemisiifolia, pre-emergence, 240 h, 0 to 100 scale where 0 is no effect and 100 is complete control, read-out: Ragweed plant response rating
Outline: as §1

[15] = system: giant foxtail (Setaria faberii); test: Test A preemergence; details: Setaria faberi, pre-emergence, 240 h, 0 to 100 scale where 0 is no effect and 100 is complete control, read-out: Foxtail, Giant plant response rating
Outline: as §1

[16] = system: pigweed (Amaranthus retroflexus); test: Test A preemergence; details: Amaranthus retroflexus, pre-emergence, 240 h, 0 to 100 scale where 0 is no effect and 100 is complete control, read-out: Pigweed plant response rating
Kochia (Kochia scoparia) [17] = test: Test A preemergence; details: Bassia scoparia, pre-emergence, 240 h, 0 to 100 scale where 0 is no effect and 100 is complete control, read-out: Kochia plant response rating
Outline: as §1

[18] = system: ryegrass, Italian (Italian ryegrass, Lolium multiflorum); test: Test A preemergence; details: Lolium multiflorum, pre-emergence, 240 h, 0 to 100 scale where 0 is no effect and 100 is complete control, read-out: Ryegrass, Italian plant response rating
Outline: as §1

[19] = 125 g ai/ha, visual rating about 10 d after treatment
[20] = 31 g ai/ha, 0 is no effect, 100 is complete control
[21] = 125 g ai/ha, preemergence, visual injury rating, approximately 10 d

Compound: CN1C[C@H](c2cc(Cl)cc(Cl)c2)[C@@H](C(=O)Nc2ccccc2F)C1=O [Compound 1269]
- pest or weed control at 125 g/ha ([1]; 125 g ai/ha, visual rating about 10 d after treatment, read-out: Barnyardgrass plant response rating (0 to 100 scale, 0 no effect, 100 complete control)): 90%
- pest or weed control at 31 g/ha ([1]; 31 g ai/ha, 0 is no effect, 100 is complete control, read-out: Barnyardgrass plant response rating (0 to 100 scale)): 90%
- pest or weed control at 125 g/ha [2, 19]: 40%
- pest or weed control at 31 g/ha [2, 20]: 0%
- pest or weed control at 125 g/ha [3, 19]: 0%
- pest or weed control at 31 g/ha [3, 20]: 0%
- plant injury at 125 g/ha [4, 19]: 60%
- plant injury at 31 g/ha [4, 20]: 0%
- pest or weed control at 125 g/ha [5, 19]: 80%
- pest or weed control at 31 g/ha [5, 20]: 60%
- pest or weed control at 125 g/ha [6, 19]: 30%
- pest or weed control at 31 g/ha [6, 20]: 0%
- pest or weed control at 125 g/ha (Kochia (Kochia scoparia) [7]; [19]): 40%
- pest or weed control at 31 g/ha (Kochia (Kochia scoparia) [7]; [20]): 0%
- pest or weed control at 125 g/ha [8, 19]: 60%
- pest or weed control at 31 g/ha [8, 20]: 0%
- plant injury at 125 g/ha (corn (Zea mays); [19]): 80%
- plant injury at 31 g/ha (corn (Zea mays); [20]): 0%
- pest or weed control at 125 g/ha [9, 19]: 30%
- pest or weed control at 31 g/ha [9, 20]: 0%
- pest or weed control at 250 g/ha [10]: 60%
- pest or weed control at 250 g/ha [11]: 90%
- pest or weed control at 250 g/ha [12]: 0%
- pest or weed control at 250 g/ha (rice (Oryra sativa)): 0%
- pest or weed control at 31 g/ha ([13]; 31 g ai/ha, Preemergence): 70%
- pest or weed control at 125 g/ha [13, 21]: 90%
- pest or weed control at 31 g/ha ([14]; 31 g ai/ha, Preemergence): 0%
- pest or weed control at 125 g/ha [14, 21]: 0%
- pest or weed control at 31 g/ha ([15]; 31 g ai/ha, Preemergence): 90%
- pest or weed control at 125 g/ha [15, 21]: 90%
- pest or weed control at 31 g/ha ([16]; 31 g ai/ha, Preemergence): 0%
- pest or weed control at 125 g/ha [16, 21]: 0%
- pest or weed control at 31 g/ha (Kochia (Kochia scoparia) [17]; 31 g ai/ha, Preemergence): 0%
- pest or weed control at 125 g/ha (Kochia (Kochia scoparia) [17]; [21]): 50%
- pest or weed control at 31 g/ha ([18]; 31 g ai/ha, Preemergence): 0%
- pest or weed control at 125 g/ha [18, 21]: 30%
